Results as given in US12215118B2, “Quinone methide analog signal amplification” (Ventana Medical Systems, Inc., priority 2014, dated 2025).

What was measured:
[1] = system: BCL6 on FFPE tonsil tissue; assay: AP-based CARD IHC with biotinylated QM precursor followed by DAB detection
Protocol: Detection 1—HRP DAB. After incubating with the AP conjugate the slides were washed with Special Stains wash (VMSI #860-015). QMP reagents were dissolved in 100 mM CHES (3-cyclo-hexylamino-ethylsulfonic acid), pH 10.0, 0.05% Brij-35. QMP turnover was achieved by adding 100 μL of AP Enhancer (VMSI #253-2182) followed by 100 μL of hapten labeled QMP and incubating at 37° C. for 16 minutes. Compound 29 is an exemplary hapten-QMP that could be used according to this method. The deposited hapten was subsequently bound by a mouse-anti-hapten-HRP conjugate (or streptavidin-HRP) (37° C.; 8 minutes), and visualized via a brown precipitate produced by HRP upon the addition of hydrogen peroxide and DAB (37° C.; 8 minutes). The DAB was toned by the addition of copper sulfate (37° C.; 4 minutes). The stained tissue sections were counterstained with modified Mayer's hematoxylin (Hematoxylin II, VMSI #790-2208) (37° C.; 4 minutes) and then incubated with Bluing Reagent (VMSI #760-2037) (37° C.; 4 minutes). The slides were then dehydrated through a graded ethanol series, cleared with xylene, and manually cover-slipped.
Both compounds utilize fluoride as the leaving group, but the reactivity of the QM derived from difluoro compound 58 should be considerably lower than monofluoro 7 due to the electronic stabilization offered by the geminal fluorine atom. […] Therefore, the difluoro QM precursor compound 58 was evaluated first for IHC staining performance on FFPE tissue using the nuclear marker BCL6 on FFPE tonsil tissue as a model system. The biotin-labeled difluoro QM precursor successfully bound to the sample as evidenced by subsequent biotin visualization using diaminobenzidine (DAB) detection. FIG. 18 provides microphotographs illustrating the detection level at varying concentrations of the difluoro QM precursor in a Tris buffer at pH=8.5 (panel A—DAB control, panel B—1 μM, panel C—10 μM and panel D—20 μM). In addition, significant amplification of signal was observed compared to the DAB control sample when on-slide concentrations of difluoro QM precursor compound 58 greater than […] were utilized.
To test the effect of pH on signal diffusion, difluoro QM precursor compound 58 was deposited as before at various pH levels within the working range for AP (7-12 with two shoulders of maximal activity at pH=8.5 and 11). The nuclear marker BCL6 on FFPE tonsil tissue was again chosen as the model. Positive staining was observed across the entire pH range, although a balance between overall signal and diffusion was seen. FIG. 19, panels A-H provide microphotographs of the detection levels of 20 µM QM precursor in Tris buffer with varying pH: panel A—DAB control; panel B pH=7.0; panel C pH=8.0; panel D pH=8.5; panel E pH=9.0; panel F pH=10.0; panel G pH=11.0; panel H pH=12.0. The diffusion appears to decrease with increasing pH. […] The level of amplification increased only as the pH rose to 8.5 and then decreased gradually over the rest of the range. This effect may be due to a combination of enzyme activity and the population of QM quenchers in the reaction media. At pH levels well below the optimal AP reaction conditions (7.0), the activity of AP was depressed, resulting in low signal. As the pH increased (8.0-8.5) but remained near the pKa of Tris (8.1), the activity of AP increased at a faster rate than the population of quenchers in the reaction media, leading to a significant increase in signal. Raising the pH further (9-10) increased the quencher population while decreasing AP activity, resulting in a decrease of signal. Although AP had maximal activity at pH 11 in Tris, a slight decrease in staining intensity was observed, most likely due to the excessively high population of quenchers that could not be overcome by the increased AP activity (raising the pH from 8.5 to 11 increases [Tris base] about 50%, with AP activity increasing by only about 20%). […]

[2] = system: Bcl2 on FFPE tonsil tissue; assay: HRP DAB amplified by QMP-biotin with different linkers; conditions: 100 nM, CHES pH 10.0, different linkers
Protocol: The tissue was deparaffinized and retrieved as described in the general procedures. Mouse-anti-Bcl-2 antibody incubation (37° C., 16 minutes) and washing were followed by secondary antibody incubation with a goat polyclonal anti-mouse antibody conjugated to AP (37° C.; 12 minutes). After incubating with the AP conjugate the slides were washed with Special Stains wash. Monofluoro QMP-biotin (with aniline amide (FIG. 23(A)), benzoic amide (FIG. 23(B)) or tyramide amide linker (FIG. 23(C)) (100 nM) was dissolved in 100 mM CHES, pH 10.0, 0.05% Brij-35 to a final concentration of 100 nM. QMP turnover was achieved by adding 100 μL of AP Enhancer followed by 100 μL of biotin labeled QMP and incubating at 37° C. for 16 minutes. The deposited biotin was subsequently bound by a streptavidin-HRP conjugate (37° C.; 8 minutes), and visualized via a brown precipitate produced by HRP upon the addition of hydrogen peroxide and DAB (37° C.; 8 minutes). The DAB was toned by the addition of copper sulfate (37° C.; 4 minutes). The stained tissue sections were counterstained with modified Mayer's hematoxylin (37° C.; 4 minutes) and then incubated with Bluing Reagent (37° C.; 4 minutes). They were then dehydrated through a graded ethanol series, cleared with xylene, and manually cover-slipped.

[3] = system: alkaline phosphatase (AP); assay: Trapping of the QM intermediate with Tris in solution, HPLC-MS; type: biochemical; conditions: pH 10 Tris buffer
Protocol: To probe the mechanism of staining and quenching, an attempt was made to trap the QM intermediate formed by monofluoro QM precursor 7 in solution-phase under similar conditions to those utilized in the staining experiments (FIG. 26). QM precursor 7 was dissolved in pH 10 Tris buffer followed by addition of a catalytic amount of AP. The reaction progress was monitored by HPLC-MS (FIG. 27, panels A-C). Within 10 minutes, complete conversion to the Tris adduct 7-tris was observed (panel C).

| SMILES | diffusion and off-target staining ([1]; 250 nM, Tris buffer, pH of 10) | concentration required to give the desired level of amplification ([1]; pH 8.5 in Tris buffer) [nM] | overall diffusion compared to difluoro QM precursor 58 ([1]; pH 8.5 in Tris buffer) | signal resolution [2] | time to complete conversion to the Tris adduct ([3]; catalytic amount of AP) [min] | reaction in the absence of AP ([3]; no AP) |
| --- | --- | --- | --- | --- | --- | --- |
| O=C(CCCCC1SCC2NC(=O)NC21)NCCCCCC(=O)Nc1ccc(OP(=O)(O)O)c(CF)c1 (stereo not shown) [Compound 7, 2-(fluoromethyl)-4-(6-(5-(2-oxohexahydro-1H-thieno[3,4-d]imidazol-4-yl)pentanamido)hexanamido)phenyl dihydrogen phosphate] | nearly eliminated | 250 | greatly reduced | well resolved signals | ≤ 10 | no reaction took place |
| O=C(CCCCC1SCC2NC(=O)NC21)NCCCCCNC(=O)c1ccc(OP(=O)(O)O)c(CF)c1 (stereo not shown) [Compound 21, 2-(fluoromethyl)-4-((5-(5-(2-oxohexahydro-1H-thieno[3,4-d]imidazol-4-yl)pentanamido)pentyl)carbamoyl)phenyl dihydrogen phosphate] |  |  |  | more diffuse, less resolved signal |  |  |
